Reference: PubChem BioAssay (NCI)
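GI50 is the concentration that inhibits growth by half. At the TGI there is no net growth.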

Assays:
Assay in all cases: NCI anticancer screen, dose series, 384-well format
NCI/ADR-RES ovarian = system: NCI/ADR-RES ovarian
PC-3 prostate = system: PC-3 prostate
SK-OV-3 ovarian = system: SK-OV-3 ovarian
LOX IMVI melanoma = system: LOX IMVI melanoma
CCRF-CEM leukemia = system: CCRF-CEM leukemia
SF-539 CNS = system: SF-539 CNS
SF-268 CNS = system: SF-268 CNS
ACHN renal = system: ACHN renal
RXF 393 renal = system: RXF 393 renal
HCC-2998 colon = system: HCC-2998 colon
DU-145 prostate = system: DU-145 prostate
MDA-MB-435 melanoma = system: MDA-MB-435 melanoma
COLO 205 colon = system: COLO 205 colon
HOP-62 NSCLC = system: HOP-62 NSCLC
OVCAR-4 ovarian = system: OVCAR-4 ovarian
OVCAR-8 ovarian = system: OVCAR-8 ovarian
786-0 renal = system: 786-0 renal
U251 glioblastoma = system: U251 glioblastoma
SK-MEL-2 melanoma = system: SK-MEL-2 melanoma
MALME-3M melanoma = system: MALME-3M melanoma
HCT-116 colon = system: HCT-116 colon
CAKI-1 renal = system: CAKI-1 renal
SK-MEL-5 melanoma = system: SK-MEL-5 melanoma
HT29 colon = system: HT29 colon
NCI-H322M lung = system: NCI-H322M lung
MOLT-4 leukemia = system: MOLT-4 leukemia
KM12 colon = system: KM12 colon
SW-620 colon = system: SW-620 colon
MCF7 breast = system: MCF7 breast

## CN(C)CC[C@H](CSc1ccccc1)Nc1ccc(S(=O)(=O)NC(=O)c2ccc(N3CCN(Cc4ccccc4-c4ccc(Cl)cc4)CC3)cc2)cc1[N+](=O)[O-]
NCI/ADR-RES ovarian
  GI50: > 100 µM
  TGI: > 100 µM
PC-3 prostate
  GI50: 1.78 µM
  TGI: 3.48 µM
SK-OV-3 ovarian
  GI50: 2.31 µM
  TGI: 6.3 µM
LOX IMVI melanoma
  GI50: 2.36 µM
  TGI: 4.73 µM
CCRF-CEM leukemia
  GI50: 0.145 µM
  TGI: 0.372 µM
SF-539 CNS
  GI50: 5.46 µM
  TGI: 100 µM
SF-268 CNS
  GI50: 3.17 µM
  TGI: > 100 µM
ACHN renal
  GI50: 5.2 µM
  TGI: 62.8 µM
RXF 393 renal
  GI50: 0.258 µM
  TGI: 1.4 µM
HCC-2998 colon
  GI50: 0.232 µM
  TGI: 0.75 µM
DU-145 prostate
  GI50: 4.2 µM
  TGI: > 100 µM
MDA-MB-435 melanoma
  GI50: 2.33 µM
  TGI: 6.07 µM
COLO 205 colon
  GI50: 1.68 µM
  TGI: 3.12 µM
HOP-62 NSCLC
  GI50: 3.18 µM
  TGI: 25.4 µM
OVCAR-4 ovarian
  GI50: 3 µM
  TGI: 9.08 µM
OVCAR-8 ovarian
  GI50: 2.29 µM
  TGI: 6.24 µM
786-0 renal
  GI50: 1.94 µM
  TGI: 4.74 µM
U251 glioblastoma
  GI50: 2.56 µM
  TGI: 7.35 µM
SK-MEL-2 melanoma
  GI50: 1.64 µM
  TGI: 3.64 µM
MALME-3M melanoma
  GI50: 3.15 µM
  TGI: 11.2 µM
HCT-116 colon
  GI50: 1.95 µM
  TGI: 4.07 µM
CAKI-1 renal
  GI50: 1.83 µM
  TGI: 3.73 µM
SK-MEL-5 melanoma
  GI50: 1.3 µM
  TGI: 2.64 µM
HT29 colon
  GI50: 2.9 µM
  TGI: 13.3 µM
NCI-H322M lung
  GI50: 2.34 µM
  TGI: 5.7 µM
MOLT-4 leukemia
  GI50: 0.119 µM
  TGI: 0.252 µM
KM12 colon
  GI50: 2.05 µM
  TGI: 6.17 µM
SW-620 colon
  GI50: 3.52 µM
  TGI: 12.2 µM
MCF7 breast
  GI50: 1.87 µM
